Read-outs that look alike come from different tables or passages of the source. Blank lines part the entries; values can stand above or below the compound they belong to.
How the values were obtained:
MDA-MB-231 cells = assay: nuclear fragmentation (subG1, Nicoletti), induction of apoptosis; format: cell-based; conditions: for EC50: Homo sapiens, MDA-MB-231, 48 h, read-out: EC50, 50% increase of the subG1 population percentage
Procedure: (§1) Different cell types, including MDA-MB-231, Jurkat, HeLa and HepG2 cells, were treated with indicated concentrations of compound I.1 and exposed to a 390 nm toxic regime, a rescue regime with both 390 nm and 515 nm light, or kept in the dark. Following the treatment, cells were stained with PI and the percentage of cells containing a hypodiploid amount of DNA (subG1 phase of cell cycle), was determined. Briefly, prior to analysis, cells were harvested on ice and incubated in a hypotonic buffer [0.1% sodium citrate, 0.1% Triton X-100 and 50 μg/mL propidium iodide (PI)] for 30 min at 4° C. Following the PI staining cells were analysed by flow cytometry using FACSCalibur flow cytometer (Becton Dickinson, Heidelberg, Germany) and Cell Quest Pro Software (Becton Dickinson).

HeLa cells = assay: as above; format: cell-based; conditions: 30 h
Procedure: as §1

[1] = UV-Vis absorption spectra of trans and cis isomers (λstrong, εE, λiso); format: physicochemical
Procedure: A(λmeas, λirrad) is used to indicate the measured UV-Vis absorption spectrum in the range 340 nm<λmeas<650 nm, as a function of the irradiating wavelength λirrad once PSS(λirrad) has been established. UV-Vis measurement of A(λmeas, λirrad) was performed. It was considered that the PSS had been established when the absorbance profile ceased to alter under continued irradiation. An isosbestic point (wavelength λiso) was found for each compound by examining where the absorption A(λmeas) was invariant with respect to changing λirrad. A(λmeas, dark) was also acquired with samples that had been kept in the dark for at least several hours, and it was assumed that no significant spectral contribution from the cis isomer was present in these spectra. […]
HPLC (high-performance liquid chromatography) was then used as described in Part A to measure ε*E(λ) and ε*Z(λ) (the separated absorption profiles of trans and cis isomers respectively, in arbitrary units which are not intercomparable in an absolute sense). It was approximated that these spectra would be identical in shape if measured under the UV-Vis conditions, so once ε*E(λ) and ε*Z(λ) were scaled appropriately relative to each other, these scaled spectra could be used to deconvolute A(λmeas, λirrad). This approximation was considered useful especially in the regions of greatest spectral interest, ie. regions of relatively strong absorption (since only rather well-absorbed wavelengths will allow significant photoisomerisation under finite photon flux). To place the arbitrary-unit absorption spectra on an absolute scale, the maximal absorption wavelength λstrong of the trans-isomer was first selected by examining A(λmeas, dark): typically, λstrong≈380 nm. with Expressing A(λstrong, dark) in units M^−1cm^−1, ε*E(λstrong) was then scaled so that εE(λstrong)=A(λstrong, dark), giving:
εE(λ)=ε*E(λ)×[A(λstrong,dark)/ε*E(λstrong)]
and the isosbestic point was used to scale the cis-isomer spectrum as per:
εZ(λ)=ε*Z(λ)×[εE(λiso)/ε*Z(λiso)]
However, using A(λstrong, dark) was preferred, since A(λiso) was typically so much smaller that the standard deviation in the scaled absorptivities which it generated was far greater.
Absorption spectra in cuvette (“UV-Vis”) were acquired on a Varian CaryScan 50 (1 cm, 100 μL or 1 mL volume) with Peltier cell temperature control unit maintained at 37° C., in PBS at pH˜7.4 containing a low percentage of cosolvent if needed (typically 2% MeCN or 5% DMSO). A ThorLabs Polychrome V monochromator with a fibre optic cable output directed into the cuvette was used to perform photoisomerisation studies by UV-Vis spectrophotometry although single LEDs of approximately 10-20 mW output, 15-20° cone angle, and 10-15 nm bandwidth FWHM, obtained commercially from Roithner Lasertechnik GmbH, were equally successful in providing repeatable monochromatic photoisomerisation. Separated spectra of trans and […] forms were acquired from the inline Diode Array Detector on the AGILENT 1260 SL coupled LC-MS system after HPLC separation. Fluorescence spectrophotometry (excitation and emission spectra) were acquired on a Varian CaryEclipse fluorescence spectrophotometer.
By the above procedure, the trans- and cis-isomers of each species were separated by HPLC as described in Part A, and ε*E(λ) and ε*Z(λ) were measured on the inline ultraviolet/visible Diode Array Detector; these were then scaled as outlined above. The parameters λstrong, εE(λstrong) and λiso are tabulated for selected compounds below (Table 1).

[2] = fluorophore moiety range above 510 nm, PBS pH = 7.4, 20% MeCN

EC50 (MDA-MB-231 cells; 390 nm regimen, 48 h): ~1 µM | EC50 (MDA-MB-231 cells; in the dark, 48 h): ~120 µM | εE(λstrong) ([1]; PBS pH = 6, 20% MeCN): 17100 M⁻¹ cm⁻¹ | λiso ([1]; PBS pH = 6, 20% MeCN): 465 nm | λstrong ([1]; PBS pH = 6, 20% MeCN): 380 nm | εE(λstrong) ([1]; PBS pH = 7.4, 20% MeCN): 17700 M⁻¹ cm⁻¹ | λiso ([1]; PBS pH = 7.4, 20% MeCN): 470 nm | λstrong ([1]; PBS pH = 7.4, 20% MeCN): 375 nm
SMILES: COc1ccc(N=Nc2cc(OC)c(OC)c(OC)c2)cc1O [I.1, 2-methoxy-5-((3,4,5-trimethoxyphenyl)diazenyl)phenol]
mean % subG1 phase (MDA-MB-231 cells; 10 nM, 390 nm (350 ms every 5 min), 48 h): 3.6% | mean % subG1 phase (MDA-MB-231 cells; 10 nM, Dark, 48 h): 6.7% | mean % subG1 phase (MDA-MB-231 cells; 10 nM, MDA-MB-231, 390 nm only (150 ms pulse every 30 s), 48 h): 0.3% | mean % subG1 phase (MDA-MB-231 cells; 10 nM, MDA-MB-231, rescue protocol 390 nm + 515 nm (500 ms), 48 h): 0.3% | mean % subG1 phase (MDA-MB-231 cells; 100 nM, 390 nm (350 ms every 5 min), 48 h): 3.9% | mean % subG1 phase (MDA-MB-231 cells; 100 nM, MDA-MB-231, 390 nm only (150 ms pulse every 30 s), 48 h): 0.3% | mean % subG1 phase (MDA-MB-231 cells; 100 nM, MDA-MB-231, dark, 48 hours): 2.1% | mean % subG1 phase (MDA-MB-231 cells; 100 nM, MDA-MB-231, rescue protocol 390 nm + 515 nm (500 ms), 48 h): 0.4% | mean % subG1 phase (MDA-MB-231 cells; 100 nM, dark, 48 h): 6.0% | mean % subG1 phase (MDA-MB-231 cells; 400 nM, 390 nm (350 ms every 5 min), 48 h): 4.2% | mean % subG1 phase (MDA-MB-231 cells; 400 nM, MDA-MB-231, 390 nm only (150 ms pulse every 30 s), 48 h): 14.0% | mean % subG1 phase (MDA-MB-231 cells; 400 nM, MDA-MB-231, rescue protocol 390 nm + 515 nm (500 ms), 48 h): 1.7% | mean % subG1 phase (MDA-MB-231 cells; 400 nM, dark, 48 h): 3.3% | mean % subG1 phase (MDA-MB-231 cells; 600 nM, 390 nm (350 ms every 5 min), 48 h): 16.8% | mean % subG1 phase (MDA-MB-231 cells; 600 nM, MDA-MB-231, 390 nm only (150 ms pulse every 30 s), 48 h): 22.9% | mean % subG1 phase (MDA-MB-231 cells; 600 nM, MDA-MB-231, rescue protocol 390 nm + 515 nm (500 ms), 48 h): 5.4% | mean % subG1 phase (MDA-MB-231 cells; 600 nM, dark, 48 h): 3.9% | mean % subG1 phase (MDA-MB-231 cells; 800 nM, 390 nm (350 ms every 5 min), 48 h): 32.1% | mean % subG1 phase (MDA-MB-231 cells; 800 nM, Dark, 48 h): 3.0% | mean % subG1 phase (MDA-MB-231 cells; 800 nM, MDA-MB-231, 390 nm only (150 ms pulse every 30 s), 48 h): 19.4% | mean % subG1 phase (MDA-MB-231 cells; 800 nM, MDA-MB-231, rescue protocol 390 nm + 515 nm (500 ms), 48 h): 11.7% | mean % subG1 phase (MDA-MB-231 cells; 1 μM, 390 nm (350 ms every 5 min), 48 h): 55.7% | mean % subG1 phase (MDA-MB-231 cells; 1 μM, MDA-MB-231, 390 nm only (150 ms pulse every 30 s), 48 h): 22.5% | mean % subG1 phase (MDA-MB-231 cells; 1 μM, MDA-MB-231, dark, 48 hours): 2.0% | mean % subG1 phase (MDA-MB-231 cells; 1 μM, MDA-MB-231, rescue protocol 390 nm + 515 nm (500 ms), 48 h): 15.3% | mean % subG1 phase (MDA-MB-231 cells; 1 μM, dark, 48 h): 3.1% | mean % subG1 phase (MDA-MB-231 cells; 1.2 μM, 390 nm (350 ms every 5 min), 48 h): 56.6% | mean % subG1 phase (MDA-MB-231 cells; 1.2 μM, DARK, 48 h): 3.6% | mean % subG1 phase (MDA-MB-231 cells; 1.5 μM, 390 nm (350 ms every 5 min), 48 h): 76.1% | mean % subG1 phase (MDA-MB-231 cells; 1.5 μM, DARK, 48 h): 3.3% | mean % subG1 phase (MDA-MB-231 cells; 2 μM, MDA-MB-231, 390 nm only (150 ms pulse every 30 s), 48 h): 35.4% | mean % subG1 phase (MDA-MB-231 cells; 2 μM, MDA-MB-231, rescue protocol 390 nm + 515 nm (500 ms), 48 h): 25.0% | mean % subG1 phase (MDA-MB-231 cells; 3 μM, 390 nm (350 ms every 5 min), 48 h): 79.0% | mean % subG1 phase (MDA-MB-231 cells; 3 μM, dark, 48 h): 6.0% | mean % subG1 phase (MDA-MB-231 cells; 6 μM, 390 nm (350 ms every 5 min), 48 h): 83.5% | mean % subG1 phase (MDA-MB-231 cells; 6 μM, DARK, 48 h): 3.9% | mean % subG1 phase (MDA-MB-231 cells; 10 μM, MDA-MB-231, dark, 48 hours): 2.0% | mean % subG1 phase (MDA-MB-231 cells; 15 μM, 390 nm (350 ms every 5 min), 48 h): 83.7% | mean % subG1 phase (MDA-MB-231 cells; 15 μM, DARK, 48 h): 5.4% | mean % subG1 phase (MDA-MB-231 cells; 50 μM, MDA-MB-231, dark, 48 hours): 4.5% | mean % subG1 phase (MDA-MB-231 cells; 75 μM, MDA-MB-231, dark, 48 hours): 7.9% | mean % subG1 phase (MDA-MB-231 cells; 85 μM, MDA-MB-231, dark, 48 hours): 12.7% | mean % subG1 phase (MDA-MB-231 cells; 100 μM, MDA-MB-231, dark, 48 hours): 26.8% | mean % subG1 phase (MDA-MB-231 cells; 125 μM, MDA-MB-231, dark, 48 hours): 51.1% | mean % subG1 phase (MDA-MB-231 cells; 150 μM, MDA-MB-231, dark, 48 hours): 92.2% | mean % subG1 phase (MDA-MB-231 cells; 175 μM, MDA-MB-231, dark, 48 hours): 95.7% | mean % subG1 phase (MDA-MB-231 cells; 200 μM, MDA-MB-231, dark, 48 hours): 95.5% | mean % subG1 phase (HeLa cells; 200 nM, 390 nm light (1 s pulses every 15 min)): 2.4% | mean % subG1 phase (HeLa cells; 200 nM, dark): 1.8% | mean % subG1 phase (HeLa cells; 600 nM, 390 nm light (1 s pulses every 15 min)): 6.2% | mean % subG1 phase (HeLa cells; 600 nM, dark): 2.3% | mean % subG1 phase (HeLa cells; 1.5 μM, 390 nm light (1 s pulses every 15 min)): 16.1% | mean % subG1 phase (HeLa cells; 1.5 μM, dark): 2.9% | mean % subG1 phase (HeLa cells; 5 μM, 390 nm light (1 s pulses every 15 min)): 12.8% | mean % subG1 phase (HeLa cells; 5 μM, dark): 3.2%

SMILES: CCN(CC)c1ccc2c(-c3ccccc3C(=O)N3CCN(CCCOc4c(N=Nc5cc(OC)c(OC)c(OC)c5)ccc(OC)c4C)CC3)c3ccc(=[N+](CC)CC)cc-3oc2c1.CCN(CC)c1ccc2c(-c3ccccc3C(=O)N3CCN(CCCOc4c(N=Nc5cc(OC)c(OC)c(OC)c5)ccc(OC)c4C)CC3)c3ccc(=[N+](CC)CC)cc-3oc2c1.O=C[O-].O=C[O-] [I.25, N-(6-(diethylamino)-9-(2-(4-(3-(3-methoxy-2-methyl-6-((3,4,5-trimethoxyphenyl)diazenyl)phenoxy)propyl)piperazine-1-carbonyl)phenyl)-3H-xanthen-3-ylidene)-N-ethylethanaminium bis(formate) salt]
εE(λstrong) ([1]; PBS pH = 7.4, 20% MeCN): 15300 M⁻¹ cm⁻¹ | λiso ([1]; PBS pH = 7.4, 20% MeCN): 460 nm | λstrong ([1]; PBS pH = 7.4, 20% MeCN): 375 nm | εE(λstrong) [1, 2]: (66600) M^−1cm^−1 | λstrong [1, 2]: (565) nm | λiso ([1]; fluorophore moiety range, A(λ > 510) invariant upon photoswitching): (510 ff) nm
